Assay results from patent US7524512B2, “Composition and method for the prevention and relief of the symptoms of an incompetent or patulous Eustachian tube” (priority 2007, dated 2009).

Columns and labels:
[1] = tested on: otitis media / middle ear infection; assay: Case studies: treatment of otitis media, otitis media with effusion and middle ear infection; type: in vivo, human
Procedure: Modification of the composition and methods of treatment for otitis media (OM) and otitis media with effusion (OME) due to inflammatory disease of the middle ear epithelium, structures and specialized membranous tissues is described below. The inflammatory diseases of the middle ear and biofilm are treated herein treated by the following methods. The composition is preferably delivered through the natural opening at the nasopharyngeal orifice of the eustachian tube leading to the middle ear chamber. If this is not possible, a needle or myringotomy incision in made in the tympanic membrane (ear drum) via the external ear canal for the delivery of the embodiment, with or without a device, into the middle ear to chamber. The chamber is irrigated and the biofilm flushed by the exemplary embodiment of the composition delivered as described above.
In otitis media, the solution is topically applied to the Eustachian Tube mucosa in appropriate dosage forms for administration or delivered to the middle ear chamber by delivery through the stoma of the Eustachian Tube in the form of nasal drops, spray, aerosol, rinse, douche or gel. The delivery system may include the modified Politzer technique or catheter insufflation of the middle ear.
If the middle ear chamber is not easily accessible through its natural eustachian tubal stoma, the chamber can be reached directly by surgically penetrating or making an incision in the tympanic membrane of the lateral wall of the middle ear, as in a myringotomy.
In this way, the contaminated middle ear fluid, micro-organisms and biofilm adhesins seen in OME may be degraded and removed by a paracentesis (needle)or myringotomy (scalpel) incision of the tympanic membrane with aspiration of the fluid, under direct visualization. The middle ear fluids and debris are degraded and flushed out by rinsing with the composition of the exemplary embodiment delivered through the acquired opening into the middle ear chamber, in the form of nasal drops, spray, aerosol, rinse, douche, irrigation or gel. The composition, L-Ascorbic acid, in about 4% to 10% wt/vol in an aqueous solution, is employed through a surgically made incision or acquired defect in the tympanic membrane of the middle ear for the optimal characteristics or effects to reestablish Eustachian luminal patency, restore the rheologic properties of the membranous lining, to breakdown and eliminate the contained microorganisms, biofilm or abiotic toxins adhering to the membranes and coating any implanted device in the middle ear, to normalize surface tension and passive closing pressure, facilitating mucociliary clearance through the restored Eustachian tube orifice into the nasopharynx. The products are then swallowed and arrive in the stomach, where the endogenous enzymes and HCL of the stomach inactivate and digest and any residual microorganisms or proteinaceous products.
If a tympanic membrane rupture has occurred, as a complication or from specific trauma, the method of the delivery of the exemplary embodiment is modified for the maximum therapeutic effect of supporting healing of the damaged tympanic membrane. This is accomplished by the application of solid, porous or absorbable implanted devices or sculptured to the anatomical defect of the tympanic membrane and implanted under direct visualization employing a surgical microscope. A non-porous device or tube may be implanted for the delivery of the novel embodiment. The implanted device serves as a conduit through which the embodiment is administered via the external ear canal on a scheduled program for continuous availability of the composition of the exemplary embodiment to support tissue healing by pre-collagen formation and re-epithelization cardinal to middle ear functions.

[2] = tested on: patulous Eustachian tube syndrome; assay: Selected case studies: nose drops in patients with patulous / semi-patulous Eustachian tube syndrome; type: in vivo, human
Procedure: In an exemplary first administration protocol, the composition is administered in the form of nose drops, the patient sniffs them through the ipsilateral nostril on the side of the symptomatic ear affected with the disorder. The number of drops administered can be titrated to the needs of the individual patient. The patient can sniff from two to four drops of the solution, and the drops are sniffed back into the nostril so as to deliver the medication to the Eustachian tube opening in the back of the nose. Administration of the drops may be repeated again in four to six hours. As desired, the daily dose maybe increased to 4 drops per administration.
An exemplary nasal drop administration protocol has been developed for the first exemplary embodiment. To achieve normal closure of the lumen, 2-6 drops of the nasal supplement solution are applied to the stoma or opening of the Eustachian tube. It may take two weeks before changes in symptoms become apparent.
Referring to the illustrations in FIGS. 1 and 2 for reference, after the patient been up for a period of time, symptoms begin as the tubal tissues lose fluid and the lumen increases. When the patient feels the symptom of autophony is about to occur, gently blowing the nose to clear any mucous is accomplished.
With the patient 10 lying with head 12 between 45 to 60 degrees above horizontal. This places the Eustachian tube stoma (opening) lower than the nostril 16. Gravity will allow the drops to flow to the back of the nose. Sniffing will draw the drops further info the nasal passage to the Eustachian tube before the semi-permiable membrane lining of the nasal passage can absorb them. Alternatively while sitting in a chair, the head is tilted back at approximately 45 degrees and then tilted toward the affected ear to place it almost below the nose.
For nasal administration, to instill the drops, put the dropper tip one-quarter inch (¼″) into the lower nostril (affected side), closest to the symptomatic ear.
Instill 2-4 drops depending on individual anatomy. Sniffing briskly to draws the drops back approximately three inches (3″) to the location of the tube opening where they will be absorbed. The patient may feel a brief burning or stinging sensation when the drops are administered properly to stimulate the closure of the stoma of the tube. The patient then remains lying down in the administering position for ten (10) seconds.

[3] = Example A: child, 5% in aqueous saline, topical to nasal mucosa, one month after recovery from upper respiratory infection
[4] = Example C: person, 5% wt/vol aqueous solution on porous implanted device, daily, after three months

Question: Which middle ear pressure ([1]; Example A: child, bilateral negative middle ear pressure, 5% in aqueous saline solution, nasal spray, over the next month) does the source give for `O=C1O[C@H]([C@@H](O)CO)C(O)=C1O` [L-Ascorbic acid] here?
Answer: within normal limits

Question: And the “Eustachian Tube function” value [1, 3]?
Answer: normal

Question: And the “middle ear infection or fluid on examination” value [1, 3]?
Answer: no evidence of any middle ear infection or fluid

Question: What about the signs of infection ([1]; Example B: person, Corynebacterium, 5% wt/vol in physiologic saline, two times a day) of the same compound?
Answer: no further signs of infection

Question: What about the middle ear drainage ([1]; Example B: person, right middle ear infection (Corynebacterium), 5% wt/vol in physiologic saline, trans canal through the perforation, two times a day, in five days) of the same compound?
Answer: completely eliminated

Question: And the “mastoid / middle ear drainage” value ([1]; Example C: person, chronic right mastoiditis, total tympanic membrane perforation, 5% wt/vol aqueous solution on porous implanted device, daily, after three months)?
Answer: ceased

Question: And the infection [1, 4]?
Answer: free of infection

Question: And the right eardrum perforation [1, 4]?
Answer: healed closed

Question: What about the hearing ([1]; Example III: child, chronic otitis media with effusion, 4% wt/vol in physiologic saline, metered nasal spray after politzerization, after two weeks) of the same compound?
Answer: hearing was restored

Question: And the adverse side effects ([1]; Example III: child, 4% wt/vol in physiologic saline, metered nasal spray)?
Answer: no adverse side effects

Question: And the adverse side effects ([2]; Example I: person, three drops, 15% wt/vol in distilled water, nose drops)?
Answer: no adverse side effects were noted

Question: And the “patulous Eustachian tube syndrome (autophony)” value ([2]; Example I: person, three drops, 15% wt/vol in distilled water, sniffed into ipsilateral nostril, repeated six hours later)?
Answer: completely relieved

Question: And the “autophony symptom of an Incompetent Eustachian Tube” value ([2]; Example II: person, unilateral semi-patulous Eustachian tube syndrome, 20% wt/vol aqueous solution, pH 2.0, 2-4 drops per treatment)?
Answer: receded completely

Question: And the adverse side effects ([2]; Example II: person, 20% wt/vol aqueous solution, pH 2.0, 2-4 drops)?
Answer: no adverse side effects

Question: What about the “carcinogenic effect from daily administration of nose drops” value ([2]; Example IV: person after nasopharyngeal carcinoma resection, 15% wt/vol aqueous solution, pH 2.1, daily over several years) of the same compound?
Answer: no carcinogenic effect

Question: And the “cytology studies of the right Eustachian tube area” value ([2]; Example IV: person, 15% wt/vol aqueous solution, pH 2.1, daily for several years)?
Answer: free of cancer

Question: And the “relief of PET symptoms” value ([2]; inventor (JD) as subject, two drops, 15% wt/vol. in distilled water, as needed, after one month)?
Answer: complete symptomatic relief
